Reference: patent publication US20130040882A1, “USE OF FIBROBLAST GROWTH FACTOR FRAGMENTS” (NOVARTIS AG, priority 2003, published 2013)

System: uterine gene expression
Assay: Gene expression profiling (HGU133A) in the uterus of ovariectomized monkeys treated with estradiol, tamoxifen or raloxifene
Format: in vivo, cynomolgus monkeys (Macaca fascicularis)

CC/C(=C(\c1ccccc1)c1ccc(OCCN(C)C)cc1)c1ccccc1 [tamoxifen]
Uterine expression increase: Collagen type 1 alpha 2 (compared with OVX controls): 6.1 fold
Uterine expression increase: collagen type 1 alpha1 (compared with OVX controls): 3.5 fold
Uterine expression increase: collagen type III alpha 1 (compared with OVX controls): 3.4 fold
Uterine expression increase: collagen type IV alpha 1 (compared with OVX controls): 3.2 fold
Uterine expression increase: insulin-like GF binding protein 2 (36 kDa) (compared with OVX controls): 2.7 fold
Uterine expression changes: IGFBP 5, latent TGF beta binding protein 1, cysteine-rich angiogenic inducer 61 (cynomolgus monkey, in vivo): only modest changes
Uterine expression of the remaining signal transduction genes examined (tamoxifen: except for LDL receptor adaptor protein): downregulated
Fold change relative to OVX: ATPase, H+ transporting, lysosomal 38 kda, V0 subunit d isoform 1 (uterus, OVX monkeys): 1.2 fold
Fold change relative to OVX: ATPase, Na+/K+ transporting, beta 3 polypeptide (uterus, OVX monkeys): 2.1 fold
Fold change relative to OVX: Biglycan (uterus, OVX monkeys): 2.0 fold
Fold change relative to OVX: CDC28 protein kinase regulatory subunit 2 (uterus, OVX monkeys): 3.1 fold
Fold change relative to OVX: Cadherin 11, type 2, OB-cadherin (osteoblast) (uterus, OVX monkeys): 3.2 fold
Fold change relative to OVX: Calcium channel, voltage-dependent, beta 2 subunit (uterus, OVX monkeys): 0.5 fold
Fold change relative to OVX: Catenin (cadherin-associated protein), alpha-like 1 (uterus, OVX monkeys): 0.7 fold
Fold change relative to OVX: Chitinase 3-like 1 (cartilage glycoprotein-39) (uterus, OVX monkeys): 1.7 fold
Fold change relative to OVX: Chloride intracellular channel 4 (uterus, OVX monkeys): 1.9 fold
Fold change relative to OVX: Chondroitin sulfate proteoglycan 2 (versican) (uterus, OVX monkeys): 2.9 fold
Fold change relative to OVX: Collagen, type I, alpha 1 (uterus, OVX monkeys): 3.5 fold
Fold change relative to OVX: Collagen, type IV, alpha 2 (uterus, OVX monkeys): 2.2 fold
Fold change relative to OVX: Collagen, type V, alpha 1 (uterus, OVX monkeys): 1.3 fold
Fold change relative to OVX: Collagen, type VI, alpha 3 (uterus, OVX monkeys): 2.0 fold
Fold change relative to OVX: Collagen, type VIII, alpha 2 (uterus, OVX monkeys): 1.8 fold
Fold change relative to OVX: Cyclin D1 (PRAD1: parathyroid adenomatosis 1) (uterus, OVX monkeys): 1.8 fold
Fold change relative to OVX: Cysteine-rich, angiogenic inducer, 61 (uterus, OVX monkeys): 1.6 fold
Fold change relative to OVX: Cytochrome c oxidase subunit via polypeptide 1 (uterus, OVX monkeys): 1.3 fold
Fold change relative to OVX: Cytochrome c oxidase subunit viia polypeptide 2 (liver) (uterus, OVX monkeys): 1.6 fold
Fold change relative to OVX: Dermatopontin (uterus, OVX monkeys): 1.8 fold
Fold change relative to OVX: Dishevelled associated activator of morphogenesis 1 (uterus, OVX monkeys): 1.2 fold
Fold change relative to OVX: Fibroblast growth factor 2 (basic) (uterus, OVX monkeys): 2.0 fold
Fold change relative to OVX: Fibulin 1 (uterus, OVX monkeys): 1.9 fold
Fold change relative to OVX: Four and a half LIM domains 2 (uterus, OVX monkeys): 1.7 fold
Fold change relative to OVX: G1 to S phase transition 1 (uterus, OVX monkeys): 1.6 fold
Fold change relative to OVX: Growth associated protein 43 (uterus, OVX monkeys): 1.9 fold
Fold change relative to OVX: H2A histone family, member Y (uterus, OVX monkeys): 1.7 fold
Fold change relative to OVX: Heparan sulfate proteoglycan 2 (perlecan) (uterus, OVX monkeys): 2.2 fold
Fold change relative to OVX: Histone H2A.F/Z variant (uterus, OVX monkeys): 1.5 fold
Fold change relative to OVX: Insulin-like growth factor binding protein 2, 36 kda (uterus, OVX monkeys): 2.7 fold
Fold change relative to OVX: Insulin-like growth factor binding protein 5 (uterus, OVX monkeys): 2.0 fold
Fold change relative to OVX: Integrin, beta 5 (uterus, OVX monkeys): 1.5 fold
Fold change relative to OVX: Intercrine-alpha, mrna sequence (uterus, OVX monkeys): 1.5 fold
Fold change relative to OVX: LDL receptor adaptor protein (uterus, OVX monkeys): 1.2 fold
Fold change relative to OVX: LIM and senescent cell antigen-like domains 1 (uterus, OVX monkeys): 2.9 fold
Fold change relative to OVX: Laminin, beta 1 (uterus, OVX monkeys): 1.4 fold
Fold change relative to OVX: Latent transforming growth factor beta binding protein 1 (uterus, OVX monkeys): 2.6 fold
Fold change relative to OVX: Matrix metalloproteinase 19 (uterus, OVX monkeys): 1.6 fold
Fold change relative to OVX: Mitogen-activated protein kinase kinase kinase kinase 4 (uterus, OVX monkeys): 0.6 fold
Fold change relative to OVX: Nidogen (enactin) (uterus, OVX monkeys): 1.9 fold
Fold change relative to OVX: Osteoglycin (osteoinductive factor, mimecan) (uterus, OVX monkeys): 1.7 fold
Fold change relative to OVX: Peroxiredoxin 1 (uterus, OVX monkeys): 1.7 fold
Fold change relative to OVX: Phosphatase and tensin homolog (mutated in multiple advanced cancers 1) (uterus, OVX monkeys): 1.6 fold
Fold change relative to OVX: Phospholipid transfer protein (uterus, OVX monkeys): 1.4 fold
Fold change relative to OVX: Pituitary tumour-transforming 1 interacting protein (uterus, OVX monkeys): 1.9 fold
Fold change relative to OVX: Procollagen C-endopeptidase enhancer (uterus, OVX monkeys): 2.3 fold
Fold change relative to OVX: Procollagen-proline, 2-oxoglutarate 4-dioxygenase (proline 4-hydroxylase), alpha polypeptide II (uterus, OVX monkeys): 1.6 fold
Fold change relative to OVX: Progesterone receptor (uterus, OVX monkeys): 4.5 fold
Fold change relative to OVX: Protein tyrosine kinase 9 (uterus, OVX monkeys): 1.7 fold
Fold change relative to OVX: SET domain, bifurcated 1 (uterus, OVX monkeys): 1.9 fold
Fold change relative to OVX: SPARC-like 1 (mast9, hevin) (uterus, OVX monkeys): 1.3 fold
Fold change relative to OVX: Secreted frizzled-related protein 1 (uterus, OVX monkeys): 2.2 fold
Fold change relative to OVX: Secreted frizzled-related protein 4 (uterus, OVX monkeys): 2.9 fold
Fold change relative to OVX: Secreted protein, acidic, cysteine-rich (osteonectin) (uterus, OVX monkeys): 2.2 fold
Fold change relative to OVX: Serine (or cysteine) proteinase inhibitor, clade H (heat shock protein 47), member 1, (collagen binding protein 1) (uterus, OVX monkeys): 2.2 fold
Fold change relative to OVX: Solute carrier family 22 (organic cation transporter), member 1-like (uterus, OVX monkeys): 1.8 fold
Fold change relative to OVX: Solute carrier family 25 (mitochondrial carrier; adenine nucleotide translocator), member 5 (uterus, OVX monkeys): 2.2 fold
Fold change relative to OVX: Stem cell growth factor; lymphocyte secreted C-type lectin (uterus, OVX monkeys): 1.4 fold
Fold change relative to OVX: Tenascin C (hexabrachion) (uterus, OVX monkeys): 3.8 fold
Fold change relative to OVX: Testis Enhanced Gene Transcript (Bax Inhibitor 1) (uterus, OVX monkeys): 1.5 fold
Fold change relative to OVX: Thioredoxin interacting protein (uterus, OVX monkeys): 0.6 fold
Fold change relative to OVX: Transforming growth factor, beta-induced, 68 kda (uterus, OVX monkeys): 2.2 fold
Fold change relative to OVX: Ubiquinol-cytochrome c reductase, Rieske iron-sulfur polypeptide 1 (uterus, OVX monkeys): 1.4 fold
Fold change relative to OVX: Wingless-type MMTV integration site family, member 2B (uterus, OVX monkeys): 1.9 fold
Fold change relative to OVX: Wingless-type MMTV integration site family, member 16 (uterus, OVX monkeys): 1.1 fold
Fold change relative to SHAM control: ATPase, H+ transporting, lysosomal 38 kda, V0 subunit d isoform 1 (uterus, OVX monkeys): 1.0 fold
Fold change relative to SHAM control: ATPase, Na+/K+ transporting, beta 3 polypeptide (uterus, OVX monkeys): 1.2 fold
Fold change relative to SHAM control: Biglycan (uterus, OVX monkeys): 0.7 fold
Fold change relative to SHAM control: CDC28 protein kinase regulatory subunit 2 (uterus, OVX monkeys): 1.9 fold
Fold change relative to SHAM control: Cadherin 11, type 2, OB-cadherin (osteoblast) (uterus, OVX monkeys): 1.9 fold
Fold change relative to SHAM control: Calcium channel, voltage-dependent, beta 2 subunit (uterus, OVX monkeys): 0.9 fold
Fold change relative to SHAM control: Catenin (cadherin-associated protein), alpha-like 1 (uterus, OVX monkeys): 1.5 fold
Fold change relative to SHAM control: Chitinase 3-like 1 (cartilage glycoprotein-39) (uterus, OVX monkeys): 1.2 fold
Fold change relative to SHAM control: Chloride intracellular channel 4 (uterus, OVX monkeys): 1.1 fold
Fold change relative to SHAM control: Chondroitin sulfate proteoglycan 2 (versican) (uterus, OVX monkeys): 2.1 fold
Fold change relative to SHAM control: Collagen, type I, alpha 1 (uterus, OVX monkeys): 1.3 fold
Fold change relative to SHAM control: Collagen, type IV, alpha 2 (uterus, OVX monkeys): 1.3 fold
Fold change relative to SHAM control: Collagen, type V, alpha 1 (uterus, OVX monkeys): 0.6 fold
Fold change relative to SHAM control: Collagen, type VI, alpha 3 (uterus, OVX monkeys): 1.1 fold
Fold change relative to SHAM control: Collagen, type VIII, alpha 2 (uterus, OVX monkeys): 1.1 fold
Fold change relative to SHAM control: Cyclin D1 (PRAD1: parathyroid adenomatosis 1) (uterus, OVX monkeys): 2.0 fold
Fold change relative to SHAM control: Cysteine-rich, angiogenic inducer, 61 (uterus, OVX monkeys): 0.9 fold
Fold change relative to SHAM control: Cytochrome c oxidase subunit via polypeptide 1 (uterus, OVX monkeys): 1.2 fold
Fold change relative to SHAM control: Cytochrome c oxidase subunit viia polypeptide 2 (liver) (uterus, OVX monkeys): 1.7 fold
Fold change relative to SHAM control: Dermatopontin (uterus, OVX monkeys): 1.0 fold
Fold change relative to SHAM control: Dishevelled associated activator of morphogenesis 1 (uterus, OVX monkeys): 0.8 fold
Fold change relative to SHAM control: Fibroblast growth factor 2 (basic) (uterus, OVX monkeys): 1.0 fold
Fold change relative to SHAM control: Fibulin 1 (uterus, OVX monkeys): 1.1 fold
Fold change relative to SHAM control: Four and a half LIM domains 2 (uterus, OVX monkeys): 1.1 fold
Fold change relative to SHAM control: G1 to S phase transition 1 (uterus, OVX monkeys): 1.3 fold
